Patent EP1881000A1, “Conjugates of 2-fluoro-2-deoxy-glucose and their uses as anti cancer agents” (INSTITUT NATIONAL DE LA SANTE ET DE LA RECHERCHE MEDICALE …, priority 2006, dated 2008)

What was measured:
Assay in all cases: In vitro cytotoxicity assay (resazurin reduction test)
Format in all cases: cell-based
ovary adenocarcinoma PA1 = conditions: Homo sapiens, 48-h continuous drug exposure
Source text: (§1) Normal human fibroblasts were purchased from Promocell (Heidelberg, Germany). This frozen culture was obtained from foreskin waste and the cells used in this work were from the seventh to twelfth passage of the culture. M4Beu, a human melanoma cell line, was established in the laboratory of Dr. J. F. Doré (INSERM, Unit 218, Lyon, France) from metastatic biopsy specimens and maintained in cell culture for almost 20 years in our lab. Breast cancer adenocarcinoma MCF 7, prostatic adenocarcinoma PC 3, colon adenocarcinoma DLD-1, lung non-small cell carcinoma A 549, ovary adenocarcinoma PA1 human cell lines and L 929 murine cell line were purchased from the European Collection of Cell Cultures (ECACC; Salisbury, United Kingdom). Murine Melanoma B16 was purchased from American Type of Culture Collection (ATCC, Manassas, USA) and murine colon carcinoma cell line CT-26 was obtained from Dr I. J. Fidler (University of Texas M.D. Anderson Cancer Center, Houston).
(§2) Stock cell cultures were maintained as monolayers in 75cm^2 culture flasks in Glutamax Eagle's minimum essential medium with Earle's salts (MEM; Gibco BRL, Paisley, UK) supplemented with 10% fetal calf serum (Sigma, St Quentin Fallavier, France), 1 mM sodium pyruvate (Gibco), 1X vitamins solution (Gibco), 1X non essential amino acids solution (Gibco) and 4 µg/ml of gentamicine (Gibco). Cells were grown at 37°C in a humidified atmosphere containing 5% CO2.
(§3) Cells were plated at a density of 5 x 10^3 cells per well in 96-well microplates (Nunclon™, Nunc, Roskilde, Denmark) in 150 µl of culture medium and were allowed to adhere for 16 h before treatment with the compound tested.
(§4) Stock solution of each compound was prepared in dimethylsulfoxide (DMSO) and kept at -20°C. until use. The percentage of DMSO was kept at 0.5% (v/v) whichever the concentration tested. […] Fifty microliters of a 4X solution in MEM was then added and a 48-h continuous drug exposure protocol was used. Then, the cytotoxic effect of compounds on tumour cells was tested by using Resazurin reduction test.
(§5) Resazurin was identified as the Alamar blue dye (O'Brien, J. et al.; European Journal of Biochemistry, 267, 5421-6, (2000)). The resazurin reduction test (RRT) was carried out according to the protocol described here. Briefly, plates were rinsed by 200 µl PBS (37° C, Gibco) using a multichannel dispenser (Labsystems, Helsinki, Finland) and emptied by overturning on absorbent toweling. Then, 150 µl of a 25 µg/ml solution of resazurin in MEM without SVF nor Phenol red was added in each well. The plates were incubated 1 h at 37° C. in an humidified atmosphere with 5% of CO2 for fluorescence development by living cells. Fluorescence was then measured on the automated 96-well plate reader Fluoroskan Ascent FL™ (Labsystems) using an excitation wavelength of 530 nm and an emission one of 590 nm.
(§6) Cytotoxic activity has been tested against the six human tumour cell lines breast adenocarcinoma MCF-7, colon adenocarcinoma DLD-1, ovary adenocarcinoma PA1, prostatic adenocarcinoma PC3, lung carcinoma A549, melanoma M4Beu and a primary culture of human fibroblasts.

[1] = test system: Breast cancer adenocarcinoma MCF 7; conditions: Homo sapiens; MCF7; 48-h continuous drug exposure
Source text: as §1, §2, §3, §4, §5, §6

[2] = test system: prostatic adenocarcinoma PC 3; conditions: Homo sapiens; PC3; 48-h continuous drug exposure
Source text: as §1, §2, §3, §4, §5, §6

[3] = test system: lung non-small cell carcinoma A 549; conditions: Homo sapiens; A549; 48-h continuous drug exposure
Source text: as §1, §2, §3, §4, §5, §6

Normal human fibroblasts = conditions: Fibroblast, 48-h continuous drug exposure
Source text: as §1, §2, §3, §4, §5, §6

[4] = test system: M4Beu, a human melanoma cell line; conditions: 48-h continuous drug exposure
Source text: as §1, §2, §3, §4, §5, §6

[5] = test system: colon adenocarcinoma DLD-1; conditions: Homo sapiens, DLD1, 48-h continuous drug exposure
Source text: as §1, §2, §3, §4, §5, §6

Murine Melanoma B16 = conditions: Mus musculus, 48-h continuous drug exposure
Source text: as §1, §2, §3, §4, §5

[6] = test system: murine colon carcinoma cell line CT-26; conditions: Mus musculus; CT26; 48-h continuous drug exposure
Source text: as §1, §2, §3, §4, §5

CC(=O)OC[C@H]1O[C@@H](Oc2ccc(NC(=O)CCCc3ccc(N(CCCl)CCCl)cc3)cc2)[C@H](F)[C@@H](OC(C)=O)[C@@H]1OC(C)=O [Compound 37a, N-[4-(3,4,6-tri-O-acetyl-2-deoxy-2-fluoro-β-D-glucopyranosyloxy)phenyl]-4-{4-[bis(2-chloroethyl)amino]phenyl}butanamide]
IC50 (ovary adenocarcinoma PA1): 0.76 ± 0.06 µM
IC50 [1]: 26 ± 11 µM
IC50 [2]: 11 ± 4 µM
IC50 [3]: 1.9 ± 0.01 µM
IC50 (Normal human fibroblasts): > 50 µM
IC50 [4]: > 50 µM
IC50 [5]: 10 ± 5 µM

CC(=O)OC[C@H]1O[C@@H](NC(=O)c2ccc(NC(=O)CCCc3ccc(N(CCCl)CCCl)cc3)cc2)[C@H](F)[C@@H](OC(C)=O)[C@@H]1OC(C)=O [Compound 20a, N-(3,4,6-tri-O-acetyl-2-deoxy-2-fluoro-β-D-glucopyranosyl)-4-(4-{4-[bis(2-chloroethyl)amino]phenyl}butanamido)benzamide]
IC50 (Murine Melanoma B16): 4.6 ± 0.3 µM
IC50 [6]: 1.7 ± 0.3 µM
IC50 (ovary adenocarcinoma PA1): 0.3 ± 0.1 µM
IC50 [1]: 5 ± 2 µM
IC50 [2]: 1.4 ± 0.3 µM
IC50 [3]: 2.7 ± 0.6 µM
IC50 (Normal human fibroblasts): 4 ± 2 µM
IC50 [4]: 7 ± 3 µM
IC50 [5]: 3 ± 2 µM

CC(=O)OC[C@H]1O[C@@H](NC(=O)CCCNC(=O)CCCc2ccc(N(CCCl)CCCl)cc2)[C@H](F)[C@@H](OC(C)=O)[C@@H]1OC(C)=O [Compound 22a, N-[4-(3,4,6-tri-O-acetyl-2-deoxy-2-fluoro-β-D-glucopyranosylamino)-4-oxobutyl]-4-{4-[bis(2-chloroethyl)amino]phenyl}butanamide]
IC50 (ovary adenocarcinoma PA1): 0.27 ± 0.04 µM
IC50 [1]: 12 ± 1 µM
IC50 [2]: 3 ± 1 µM
IC50 [3]: 13 ± 5 µM
IC50 (Normal human fibroblasts): 4.1 ± 0.1 µM
IC50 [4]: 9 ± 3 µM
IC50 [5]: 9 ± 2 µM

CC(=O)OC[C@H]1O[C@@H](NC(=O)NCCCc2ccc(N(CCCl)CCCl)cc2)[C@H](F)[C@@H](OC(C)=O)[C@@H]1OC(C)=O [Compound 17a, N-(3,4,6-tri-O-acetyl-2-deoxy-2-fluoro-β-D-glucopyranosyl)-N'-{3-(4-[bis(2-chloroethyl)amino]phenyl)propyl}urea]
IC50 (ovary adenocarcinoma PA1): 0.6 ± 0.2 µM
IC50 [1]: 26.4 ± 0.6 µM
IC50 [2]: 4 ± 1 µM
IC50 [3]: 8 ± 2 µM
IC50 (Normal human fibroblasts): 13 ± 2 µM
IC50 [4]: 27 ± 11 µM
IC50 [5]: 7 ± 3 µM

CC(=O)OC[C@H]1O[C@@H](NC(=O)CCNC(=O)CCCc2ccc(N(CCCl)CCCl)cc2)[C@H](F)[C@@H](OC(C)=O)[C@@H]1OC(C)=O [Compound 31a, N-[3-(3,4,6-tri-O-acetyl-2-deoxy-2-fluoro-β-D-glucopyranosylamino)-3-oxopropyl]-4-{4-[bis(2-chloroethyl)amino]phenyl}butanamide]
IC50 (ovary adenocarcinoma PA1): 0.24 ± 0.08 µM
IC50 [1]: 13 ± 5 µM
IC50 [2]: 3.7 ± 0.3 µM
IC50 [3]: 9.2 ± 0.5 µM
IC50 (Normal human fibroblasts): 7 ± 5 µM
IC50 [4]: 15 ± 3 µM
IC50 [5]: 11 ± 4 µM
